ChEMBL document CHEMBL1201862, “PubChem BioAssay data set” (2004)
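48-hour exposure; five concentrations; linearly interpolated endpoints. GI50: concentration for 50% inhibition of growth.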 Active and inactive are the calls of the source. No stated cut-off is given here; in the data, active = GI50 up to about 1.1 µM and inactive = higher.

Key:
Test in all cases: DTP human tumour cell line panel, 48 h
NCI-H460 = test system: NCI-H460
HCC 2998 = test system: HCC 2998
COLO 205 = test system: COLO 205
HT-29 = test system: HT-29
SW-620 = test system: SW-620
K562 = test system: K562
SN12C = test system: SN12C
M14 = test system: M14
TK-10 = test system: TK-10
A549 = test system: A549
SK-MEL-2 = test system: SK-MEL-2
HOP-62 = test system: HOP-62
NCI-H226 = test system: NCI-H226
LOX IMVI = test system: LOX IMVI
OVCAR-4 = test system: OVCAR-4
DU-145 = test system: DU-145
SR = test system: SR
MDA-MB-435 = test system: MDA-MB-435
OVCAR-5 = test system: OVCAR-5
MOLT-4 = test system: MOLT-4
786-0 = test system: 786-0
RXF 393 = test system: RXF 393
UO-31 = test system: UO-31
CCRF-CEM = test system: CCRF-CEM
MCF7 = test system: MCF7
HCT-116 = test system: HCT-116
IGROV-1 = test system: IGROV-1
T47D = test system: T47D
SK-MEL-5 = test system: SK-MEL-5
UACC-62 = test system: UACC-62
Hs-578T = test system: Hs-578T
HOP-92 = test system: HOP-92
SNB-75 = test system: SNB-75
MDA-MB-231 = test system: MDA-MB-231
U-251 = test system: U-251
CAKI-1 = test system: CAKI-1
UACC-257 = test system: UACC-257
SF-539 = test system: SF-539
BT-549 = test system: BT-549
HL-60 = test system: HL-60
SF-268 = test system: SF-268
KM12 = test system: KM12
SNB-19 = test system: SNB-19
PC-3 = test system: PC-3
SF-295 = test system: SF-295
Malme-3M = test system: Malme-3M
NCI/ADR-RES = test system: NCI/ADR-RES
SK-OV-3 = test system: SK-OV-3
MDA-N = test system: MDA-N
SK-MEL-28 = test system: SK-MEL-28
OVCAR-8 = test system: OVCAR-8
OVCAR-3 = test system: OVCAR-3
NCI-H23 = test system: NCI-H23
NCI-H522 = test system: NCI-H522
ACHN = test system: ACHN
HCT-15 = test system: HCT-15
A498 = test system: A498
EKVX = test system: EKVX
RPMI-8226 = test system: RPMI-8226

In the case of `Fc1ccc(NC(=S)SCc2ccc3c(c2)OCO3)cc1F`, the GI50 (NCI-H460) is reported as 28 µM (inactive), the GI50 (HCC 2998) is reported as 21.8 µM (inactive) and the GI50 (COLO 205) is reported as 18.9 µM (inactive). For the same molecule, the GI50 (HT-29) was 20.2 µM (inactive), the GI50 (SW-620) was 33 µM (inactive) and the GI50 (K562) was 19.1 µM (inactive). For the same molecule, the GI50 (SN12C) was 16.3 µM (inactive), the GI50 (M14) was 20.4 µM (inactive) and the GI50 (TK-10) was 30.1 µM (inactive). The GI50 (A549) was 15.6 µM (inactive), the GI50 (SK-MEL-2) was 18.3 µM (inactive) and the GI50 (HOP-62) was 39.5 µM (inactive). For the same molecule, the GI50 (NCI-H226) was 37.7 µM (inactive), the GI50 (LOX IMVI) was 15.3 µM (inactive) and the GI50 (OVCAR-4) was 22.4 µM (inactive). For the same molecule, the GI50 (DU-145) was 31.6 µM (inactive), the GI50 (SR) was 17.4 µM (inactive) and the GI50 (MDA-MB-435) was 20.6 µM (inactive). The GI50 (OVCAR-5) was 11.1 µM (inactive), the GI50 (MOLT-4) was 18.7 µM (inactive) and the GI50 (786-0) was 37.2 µM (inactive). The GI50 (RXF 393) was 15.5 µM (inactive), the GI50 (UO-31) was 17 µM (inactive) and the GI50 (CCRF-CEM) was 23.4 µM (inactive). For the same molecule, the GI50 (MCF7) was 18.7 µM (inactive), the GI50 (HCT-116) was 49.3 µM (inactive) and the GI50 (IGROV-1) was 18.6 µM (inactive). For the same molecule, the GI50 (T47D) was 10.8 µM (inactive), the GI50 (SK-MEL-5) was 16 µM (inactive) and the GI50 (UACC-62) was 14.2 µM (inactive). The GI50 (Hs-578T) was 26.9 µM (inactive), the GI50 (HOP-92) was 23.2 µM (inactive) and the GI50 (SNB-75) was 20.6 µM (inactive). For the same molecule, the GI50 (MDA-MB-231) was 31.1 µM (inactive), the GI50 (U-251) was 17.4 µM (inactive) and the GI50 (CAKI-1) was 27.7 µM (inactive). For the same molecule, the GI50 (UACC-257) was 21.1 µM (inactive), the GI50 (SF-539) was 22.7 µM (inactive) and the GI50 (BT-549) was 21.1 µM (inactive). The GI50 (HL-60) was 16.7 µM (inactive), the GI50 (SF-268) was 21.2 µM (inactive) and the GI50 (KM12) was 25.5 µM (inactive). For the same molecule, the GI50 (SNB-19) was 16.6 µM (inactive), the GI50 (PC-3) was 25.5 µM (inactive) and the GI50 (SF-295) was 18.4 µM (inactive). The GI50 (Malme-3M) was 24.4 µM (inactive), the GI50 (NCI/ADR-RES) was 25.2 µM (inactive) and the GI50 (SK-OV-3) was 53.6 µM (inactive). For the same molecule, the GI50 (MDA-N) was 17.6 µM (inactive), the GI50 (SK-MEL-28) was 3.76 µM (inactive) and the GI50 (OVCAR-8) was 18.3 µM (inactive). The GI50 (OVCAR-3) was 29.2 µM (inactive), the GI50 (NCI-H23) was 20.7 µM (inactive) and the GI50 (NCI-H522) was 16.8 µM (inactive). The GI50 (ACHN) was 19.7 µM (inactive), the GI50 (HCT-15) was 17.2 µM and the GI50 (A498) was 17.4 µM (inactive). The GI50 (EKVX) was 11.7 µM (inactive).

In the case of `Cc1nc2n(c1/C=C1/C(=O)Nc3cccc(Cl)c31)CCS2`, the GI50 (NCI-H460) is reported as > 100 µM (inactive), the GI50 (HCC 2998) is reported as > 100 µM (inactive) and the GI50 (COLO 205) is reported as > 100 µM (inactive). The GI50 (HT-29) was > 100 µM (inactive), the GI50 (SW-620) was > 100 µM (inactive) and the GI50 (K562) was 20.3 µM (inactive). For the same molecule, the GI50 (SN12C) was 25.1 µM (inactive), the GI50 (M14) was > 100 µM (inactive) and the GI50 (TK-10) was 37.7 µM (inactive). The GI50 (A549) was 56.1 µM (inactive), the GI50 (SK-MEL-2) was 17.1 µM (inactive) and the GI50 (HOP-62) was 24 µM (inactive). The GI50 (RPMI-8226) was > 100 µM (inactive), the GI50 (LOX IMVI) was 81.7 µM (inactive) and the GI50 (DU-145) was 48.1 µM (inactive). The GI50 (SR) was > 100 µM (inactive), the GI50 (MDA-MB-435) was 33.5 µM (inactive) and the GI50 (OVCAR-5) was > 100 µM (inactive). For the same molecule, the GI50 (MOLT-4) was 35.2 µM (inactive), the GI50 (786-0) was 40 µM (inactive) and the GI50 (RXF 393) was 20.7 µM (inactive). The GI50 (UO-31) was 29.8 µM (inactive), the GI50 (CCRF-CEM) was 50.9 µM (inactive) and the GI50 (MCF7) was 14.2 µM (inactive). For the same molecule, the GI50 (HCT-116) was 42.2 µM (inactive), the GI50 (IGROV-1) was 48.8 µM (inactive) and the GI50 (T47D) was 15.1 µM (inactive). The GI50 (SK-MEL-5) was 55.1 µM (inactive), the GI50 (UACC-62) was 33.6 µM (inactive) and the GI50 (Hs-578T) was 22 µM (inactive). The GI50 (HOP-92) was 20.7 µM (inactive), the GI50 (SNB-75) was 17.5 µM (inactive) and the GI50 (MDA-MB-231) was 18.7 µM (inactive). For the same molecule, the GI50 (U-251) was 17 µM (inactive), the GI50 (CAKI-1) was 46.3 µM (inactive) and the GI50 (UACC-257) was > 100 µM (inactive). The GI50 (SF-539) was 19 µM (inactive), the GI50 (BT-549) was 25.1 µM (inactive) and the GI50 (HL-60) was > 100 µM (inactive). The GI50 (SF-268) was 19.5 µM (inactive), the GI50 (KM12) was > 100 µM (inactive) and the GI50 (SNB-19) was 27.2 µM (inactive). For the same molecule, the GI50 (PC-3) was 38 µM (inactive), the GI50 (SF-295) was 27.5 µM (inactive) and the GI50 (Malme-3M) was 50.2 µM (inactive). For the same molecule, the GI50 (NCI/ADR-RES) was 31.1 µM (inactive), the GI50 (SK-OV-3) was 16.7 µM (inactive) and the GI50 (MDA-N) was 57.9 µM (inactive). For the same molecule, the GI50 (SK-MEL-28) was > 100 µM (inactive), the GI50 (OVCAR-8) was 25.7 µM (inactive) and the GI50 (OVCAR-3) was > 100 µM (inactive). The GI50 (NCI-H23) was 22 µM (inactive), the GI50 (NCI-H522) was 21.5 µM (inactive) and the GI50 (ACHN) was 31 µM (inactive). For the same molecule, the GI50 (HCT-15) was 89.1 µM, the GI50 (A498) was 30 µM (inactive) and the GI50 (EKVX) was 31.8 µM (inactive).
